Data: ChEMBL document CHEMBL1914411, “Synthesis of lipophilic dimeric C-7/C-7-linked ciprofloxacin and C-6/C-6-linked levofloxacin derivatives. Versatile in vitro biological evaluations of monomeric and dimeric fluoroquinolone derivatives as potential antitumor, antibacterial or antimycobacterial agents” (Eur J Med Chem, 2011)
In brackets after ≈: the same amount, converted by molar mass. Activity calls are given as the source filed them. No rule for the calls is given here.

Experiments:
[1] = tested on: Staphylococcus aureus; assay: Ratio of ciprofloxacin MIC to compound MIC for multidrug-resistant Staphylococcus aureus isolate 1; assay type: functional
[2] = tested on: Pseudomonas aeruginosa; assay: Antimicrobial activity against Pseudomonas aeruginosa CIP 82.118 after 18 to 24 hrs by broth microdilution method; assay type: functional
[3] = tested on: Staphylococcus aureus; assay: Antimicrobial activity against methicillin-resistant Staphylococcus aureus ATCC 33592 after 18 to 24 hrs by broth microdilution method; assay type: functional
[4] = tested on: Staphylococcus aureus; assay: Antimicrobial activity against multidrug-resistant Staphylococcus aureus isolate 1 after 18 to 24 hrs by broth microdilution method; assay type: functional
[5] = tested on: Staphylococcus aureus; assay: Antimicrobial activity against methicillin-resistant Staphylococcus aureus ATCC 33591 after 18 to 24 hrs by broth microdilution method; assay type: functional
[6] = tested on: Staphylococcus aureus; assay: Antimicrobial activity against multidrug-resistant Staphylococcus aureus isolate 2 after 18 to 24 hrs by broth microdilution method; assay type: functional
[7] = tested on: Escherichia coli; assay: Antimicrobial activity against Escherichia coli CIP 53126 after 18 to 24 hrs by broth microdilution method; assay type: functional
[8] = tested on: Staphylococcus aureus; assay: Antimicrobial activity against Staphylococcus aureus CIP 4.83 after 18 to 24 hrs by broth microdilution method; assay type: functional
[9] = tested on: Enterococcus hirae; assay: Antimicrobial activity against Enterococcus hirae CIP 5855 after 18 to 24 hrs by broth microdilution method; assay type: functional
[10] = tested on: Mycobacterium tuberculosis; assay: Antimycobacterial activity against Mycobacterium tuberculosis H37Rv assessed as growth inhibition at 0.1 uM after 6 days by MTT colorimetric microassay; assay type: functional, organism-based
[11] = tested on: Staphylococcus aureus; assay: Ratio of ciprofloxacin MIC to compound MIC for multidrug-resistant Staphylococcus aureus isolate 2; assay type: functional
[12] = tested on: MCF7; assay: Antiproliferative activity against human MCF7 cells after 120 hrs by MTT asasy; assay type: functional, cell-based; settings: MCF7, 120 h
[13] = Antiproliferative activity against human U373MG cells after 120 hrs by MTT asasy; assay type: functional, cell-based, U-373MG ATCC; settings: U373 MG
[14] = tested on: Mycobacterium tuberculosis; assay: Antimycobacterial activity against Mycobacterium tuberculosis H37Rv assessed as growth inhibition at 10 uM after 6 days by MTT colorimetric microassay; assay type: functional; settings: 144 h, read-out: GI
[15] = tested on: Staphylococcus aureus; assay: Ratio of ciprofloxacin MIC to compound MIC for methicillin-resistant Staphylococcus aureus ATCC 33592; assay type: functional
[16] = tested on: Mycobacterium tuberculosis; assay: Antimycobacterial activity against Mycobacterium tuberculosis H37Rv assessed as growth inhibition at 1 uM after 6 days by MTT colorimetric microassay; assay type: functional; settings: 144 h, read-out: GI
[17] = tested on: LoVo; assay: Antiproliferative activity against human LoVo cells after 120 hrs by MTT asasy; assay type: functional, cell-based
[18] = tested on: Mycobacterium tuberculosis; assay: Antimycobacterial activity against Mycobacterium tuberculosis H37Rv after 6 days by MTT colorimetric microassay; assay type: functional, organism-based; settings: 144 h
[19] = tested on: PC-3; assay: Antiproliferative activity against human PC3 cells after 120 hrs by MTT asasy; assay type: functional, cell-based; settings: PC-3, 120 h
[20] = tested on: A549; assay: Antiproliferative activity against human A549 cells after 120 hrs by MTT asasy; assay type: functional, cell-based; settings: A549, 120 h
[21] = Solubility of compound in cell medium at 20 uM at 37 degC after 24 hrs; assay type: physicochemical

Row | SMILES | Ratio [1] | MBC [2] | MIC [2] | MBC [3] | MIC [3] | MBC [4] | MIC [4] | MBC [5] | MIC [5] | MBC [6] | MIC [6] | MBC [7] | MIC [7] | MBC [8] | MIC [8] | MBC [9] | MIC [9] | growth inhibition (GI) [10] | IC50 [13] | inhibition of growth at 10 µM [14] | further results
1 | CCCC(=O)OCC(=O)N1CCN(c2cc3c(cc2F)c(=O)c(C(=O)O)cn3C2CC2)CC1 | 2 | 250 µM (≈ 115 µg/mL) | 62.5 µM (≈ 28.7 µg/mL) | 0.12 µM (≈ 0.0551 µg/mL) | 0.06 µM (≈ 0.0276 µg/mL) | 62.5 µM (≈ 28.7 µg/mL) | 15.6 µM (≈ 7.17 µg/mL) | 0.97 µM (≈ 0.446 µg/mL) | 0.48 µM (≈ 0.221 µg/mL) | 15.6 µM (≈ 7.17 µg/mL) | 15.6 µM (≈ 7.17 µg/mL) | 31.2 µM (≈ 14.3 µg/mL) | 31.2 µM (≈ 14.3 µg/mL) | ≤ 0.48 µM | ≤ 0.24 µM | ≤ 0.97 µM | ≤ 0.97 µM | inactive |  |  | Ratio [11]: 2
2 | O=C(CCCCCCCCCCCCC(=O)OCN1CCN(c2cc3c(cc2F)c(=O)c(C(=O)O)cn3C2CC2)CC1)OCN1CCN(c2cc3c(cc2F)c(=O)c(C(=O)O)cn3C2CC2)CC1 |  | 125 µM (≈ 118 µg/mL) | 62.5 µM (≈ 59.1 µg/mL) | 0.48 µM (≈ 0.454 µg/mL) |  | 250 µM (≈ 236 µg/mL) | 62.5 µM (≈ 59.1 µg/mL) | 3.9 µM (≈ 3.69 µg/mL) | 0.97 µM (≈ 0.917 µg/mL) | 62.5 µM (≈ 59.1 µg/mL) | 31.2 µM (≈ 29.5 µg/mL) | 62.5 µM (≈ 59.1 µg/mL) | 31.2 µM (≈ 29.5 µg/mL) | ≤ 0.97 µM | ≤ 0.97 µM | 15.6 µM (≈ 14.7 µg/mL) | 15.6 µM (≈ 14.7 µg/mL) | inactive | 3000 nM | 87% | IC50 [12]: 9000 nM
3 | O=C(O)c1cn(C2CC2)c2cc(N3CCN(C(=O)CCCCCCCCCCCCCC(=O)N4CCN(c5cc6c(cc5F)c(=O)c(C(=O)O)cn6C5CC5)CC4)CC3)c(F)cc2c1=O |  | 250 µM (≈ 225 µg/mL) | 62.5 µM (≈ 56.2 µg/mL) | 0.48 µM (≈ 0.432 µg/mL) | 0.06 µM (≈ 0.0539 µg/mL) | 500 µM (≈ 450 µg/mL) | 1.9 µM (≈ 1.71 µg/mL) | 0.97 µM (≈ 0.872 µg/mL) | 0.06 µM (≈ 0.0539 µg/mL) | 31.2 µM (≈ 28.1 µg/mL) | 15.6 µM (≈ 14 µg/mL) | 500 µM (≈ 450 µg/mL) | 62.5 µM (≈ 56.2 µg/mL) | 1.9 µM (≈ 1.71 µg/mL) | ≤ 0.06 µM | 500 µM (≈ 450 µg/mL) | 125 µM (≈ 112 µg/mL) | inactive |  | 40% | Ratio [15]: 8
4 | CCCCCCCCCCCC(=O)OCC(=O)N1CCN(c2cc3c(cc2F)c(=O)c(C(=O)O)cn3C2CC2)CC1 |  | 250 µM (≈ 143 µg/mL) | 62.5 µM (≈ 35.7 µg/mL) | 0.97 µM (≈ 0.555 µg/mL) | 0.06 µM (≈ 0.0343 µg/mL) | 500 µM (≈ 286 µg/mL) | 125 µM (≈ 71.5 µg/mL) | 3.9 µM (≈ 2.23 µg/mL) | 1.9 µM (≈ 1.09 µg/mL) | 250 µM (≈ 143 µg/mL) | 62.5 µM (≈ 35.7 µg/mL) | 250 µM (≈ 143 µg/mL) | 125 µM (≈ 71.5 µg/mL) | ≤ 0.97 µM | ≤ 0.97 µM | 7.8 µM (≈ 4.46 µg/mL) | 7.8 µM (≈ 4.46 µg/mL) | inactive | 49000 nM | > 95% | 
5 | CCCCCCCCCC(=O)OCC(=O)N1CCN(c2cc3c(cc2F)c(=O)c(C(=O)O)cn3C2CC2)CC1 | 2 | 250 µM (≈ 136 µg/mL) | 31.2 µM (≈ 17 µg/mL) |  |  | 15.6 µM (≈ 8.48 µg/mL) | 7.8 µM (≈ 4.24 µg/mL) | 0.48 µM (≈ 0.261 µg/mL) | 0.24 µM (≈ 0.13 µg/mL) | 15.6 µM (≈ 8.48 µg/mL) | 7.8 µM (≈ 4.24 µg/mL) | 15.6 µM (≈ 8.48 µg/mL) | 15.6 µM (≈ 8.48 µg/mL) | ≤ 0.97 µM | ≤ 0.97 µM | 15.6 µM (≈ 8.48 µg/mL) | 7.8 µM (≈ 4.24 µg/mL) | inactive |  | > 95% | Ratio [11]: 2
6 | CCCCOC(=O)N1CCN(c2cc3c(cc2F)c(=O)c(C(=O)O)cn3C2CC2)CC1 |  | 250 µM (≈ 108 µg/mL) | 62.5 µM (≈ 27 µg/mL) | 0.12 µM (≈ 0.0518 µg/mL) |  | 500 µM (≈ 216 µg/mL) | 62.5 µM (≈ 27 µg/mL) | 0.12 µM (≈ 0.0518 µg/mL) | 0.03 µM (≈ 0.0129 µg/mL) | 31.2 µM (≈ 13.5 µg/mL) | 31.2 µM (≈ 13.5 µg/mL) | 31.2 µM (≈ 13.5 µg/mL) | 7.8 µM (≈ 3.37 µg/mL) | ≤ 0.12 µM | ≤ 0.06 µM | 7.8 µM (≈ 3.37 µg/mL) | 3.9 µM (≈ 1.68 µg/mL) | inactive | 31000 nM |  | Ratio [15]: 63
7 | CCCCCC(=O)OCC(=O)N1CCN(c2cc3c(cc2F)c(=O)c(C(=O)O)cn3C2CC2)CC1 | 2 | 250 µM (≈ 122 µg/mL) | 62.5 µM (≈ 30.5 µg/mL) |  |  | 500 µM (≈ 244 µg/mL) | 15.6 µM (≈ 7.61 µg/mL) | 0.06 µM (≈ 0.0293 µg/mL) | 0.03 µM (≈ 0.0146 µg/mL) | 15.6 µM (≈ 7.61 µg/mL) | 7.8 µM (≈ 3.8 µg/mL) | 31.2 µM (≈ 15.2 µg/mL) | 31.2 µM (≈ 15.2 µg/mL) | ≤ 0.24 µM | ≤ 0.03 µM | ≤ 0.97 µM | ≤ 0.97 µM | inactive |  | > 95% | Ratio [11]: 2
8 | C[C@H]1COc2c(N3CCN(C)CC3)c(F)cc3c(=O)c(C(=O)NCCCCCCCCCNC(=O)c4cn5c6c(c(N7CCN(C)CC7)c(F)cc6c4=O)OC[C@@H]5C)cn1c23 |  | 250 µM (≈ 211 µg/mL) | 62.5 µM (≈ 52.8 µg/mL) |  |  |  |  |  |  |  |  | 3.9 µM (≈ 3.3 µg/mL) | 3.9 µM (≈ 3.3 µg/mL) | 31.2 µM (≈ 26.4 µg/mL) | 31.2 µM (≈ 26.4 µg/mL) | 31.2 µM (≈ 26.4 µg/mL) | 31.2 µM (≈ 26.4 µg/mL) | inactive | 200 nM | 60% | inhibition of growth at 1 µM [16]: 20%; IC50 [17]: 200 nM; IC50 [18]: 2500 nM; MIC [18]: 5 µM (≈ 4.23 µg/mL); IC50 [12]: 200 nM; IC50 [19]: 200 nM; IC50 [20]: 200 nM; solubility [21]: soluble
